ChEMBL document CHEMBL1909046, “DrugMatrix in vitro pharmacology data”

Columns and labels:
[1] = target: T1, Type-2 angiotensin II receptor (Homo sapiens, UniProt P50052); assay type: cell-based; settings: cho-k1; further: in other assays of this panel Not Active means under 50% inhibition at 10 µM
T1 sequence (P50052 whole entry): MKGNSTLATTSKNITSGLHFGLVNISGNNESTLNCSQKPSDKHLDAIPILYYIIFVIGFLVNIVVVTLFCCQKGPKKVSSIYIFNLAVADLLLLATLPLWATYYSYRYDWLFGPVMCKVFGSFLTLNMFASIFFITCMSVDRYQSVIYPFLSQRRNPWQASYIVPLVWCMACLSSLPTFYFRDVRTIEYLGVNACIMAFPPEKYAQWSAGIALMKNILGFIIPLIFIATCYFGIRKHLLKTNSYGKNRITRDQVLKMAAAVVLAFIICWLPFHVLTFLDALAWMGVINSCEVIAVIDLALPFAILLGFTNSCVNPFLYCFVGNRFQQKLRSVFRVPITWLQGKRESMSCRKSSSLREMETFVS

[2] = target: Platelet-activating factor receptor (Homo sapiens, UniProt P25105); assay type: tissue-based; further: in other assays of this panel Not Active means under 50% inhibition at 10 µM
Chain of Platelet-activating factor receptor (P25105 whole entry): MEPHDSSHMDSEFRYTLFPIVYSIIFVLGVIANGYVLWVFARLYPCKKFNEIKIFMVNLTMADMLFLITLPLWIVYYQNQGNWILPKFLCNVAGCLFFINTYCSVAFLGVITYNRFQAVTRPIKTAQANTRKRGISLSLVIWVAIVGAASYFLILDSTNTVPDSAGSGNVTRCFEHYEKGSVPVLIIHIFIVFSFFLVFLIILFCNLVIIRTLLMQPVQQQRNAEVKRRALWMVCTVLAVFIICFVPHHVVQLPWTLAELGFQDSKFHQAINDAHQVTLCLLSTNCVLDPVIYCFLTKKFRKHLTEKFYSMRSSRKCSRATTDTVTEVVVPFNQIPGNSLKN

[3] = DRUGMATRIX: Leukotriene, BLT (LTB4) radioligand binding (ligand: [3H]LTB4); assay type: cell membranes, Membrane; settings: u-937; Not Active = under 50% inhibition at 10 µM
[4] = target: T2, C-C chemokine receptor type 4 (Homo sapiens, UniProt P51679); assay type: cell membranes, Membrane; settings: chem-1; further: in other assays of this panel Not Active means under 50% inhibition at 10 µM
T2 sequence (P51679 whole entry): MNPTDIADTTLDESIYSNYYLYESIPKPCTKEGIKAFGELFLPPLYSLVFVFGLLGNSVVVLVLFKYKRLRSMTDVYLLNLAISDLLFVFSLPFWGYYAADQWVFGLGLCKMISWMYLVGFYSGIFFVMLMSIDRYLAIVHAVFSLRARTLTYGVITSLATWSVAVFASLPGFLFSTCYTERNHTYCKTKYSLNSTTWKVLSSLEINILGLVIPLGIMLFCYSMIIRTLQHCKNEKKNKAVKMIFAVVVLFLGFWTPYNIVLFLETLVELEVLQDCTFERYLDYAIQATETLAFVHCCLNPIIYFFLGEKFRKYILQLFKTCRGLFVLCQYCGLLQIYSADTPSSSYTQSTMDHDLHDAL

[5] = target: T3, B2 bradykinin receptor (Homo sapiens, UniProt P30411); assay type: cell membranes, Membrane; settings: chem-1; further: in other assays of this panel Not Active means under 50% inhibition at 10 µM
T3 sequence (P30411 whole entry): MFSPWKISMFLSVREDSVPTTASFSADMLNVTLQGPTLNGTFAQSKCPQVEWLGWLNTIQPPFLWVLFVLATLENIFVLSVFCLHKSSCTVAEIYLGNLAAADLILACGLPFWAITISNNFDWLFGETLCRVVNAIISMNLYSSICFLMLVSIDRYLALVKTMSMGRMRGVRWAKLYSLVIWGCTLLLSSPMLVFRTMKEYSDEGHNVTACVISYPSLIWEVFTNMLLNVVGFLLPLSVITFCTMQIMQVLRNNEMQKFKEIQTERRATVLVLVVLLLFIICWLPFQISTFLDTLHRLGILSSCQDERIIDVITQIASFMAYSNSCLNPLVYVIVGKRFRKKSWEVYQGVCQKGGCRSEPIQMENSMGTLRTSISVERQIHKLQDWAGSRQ

[6] = target: T4, Angiotensin-converting enzyme (Oryctolagus cuniculus, UniProt P12822); assay type: tissue-based, Lung
T4 sequence (P12822 whole entry): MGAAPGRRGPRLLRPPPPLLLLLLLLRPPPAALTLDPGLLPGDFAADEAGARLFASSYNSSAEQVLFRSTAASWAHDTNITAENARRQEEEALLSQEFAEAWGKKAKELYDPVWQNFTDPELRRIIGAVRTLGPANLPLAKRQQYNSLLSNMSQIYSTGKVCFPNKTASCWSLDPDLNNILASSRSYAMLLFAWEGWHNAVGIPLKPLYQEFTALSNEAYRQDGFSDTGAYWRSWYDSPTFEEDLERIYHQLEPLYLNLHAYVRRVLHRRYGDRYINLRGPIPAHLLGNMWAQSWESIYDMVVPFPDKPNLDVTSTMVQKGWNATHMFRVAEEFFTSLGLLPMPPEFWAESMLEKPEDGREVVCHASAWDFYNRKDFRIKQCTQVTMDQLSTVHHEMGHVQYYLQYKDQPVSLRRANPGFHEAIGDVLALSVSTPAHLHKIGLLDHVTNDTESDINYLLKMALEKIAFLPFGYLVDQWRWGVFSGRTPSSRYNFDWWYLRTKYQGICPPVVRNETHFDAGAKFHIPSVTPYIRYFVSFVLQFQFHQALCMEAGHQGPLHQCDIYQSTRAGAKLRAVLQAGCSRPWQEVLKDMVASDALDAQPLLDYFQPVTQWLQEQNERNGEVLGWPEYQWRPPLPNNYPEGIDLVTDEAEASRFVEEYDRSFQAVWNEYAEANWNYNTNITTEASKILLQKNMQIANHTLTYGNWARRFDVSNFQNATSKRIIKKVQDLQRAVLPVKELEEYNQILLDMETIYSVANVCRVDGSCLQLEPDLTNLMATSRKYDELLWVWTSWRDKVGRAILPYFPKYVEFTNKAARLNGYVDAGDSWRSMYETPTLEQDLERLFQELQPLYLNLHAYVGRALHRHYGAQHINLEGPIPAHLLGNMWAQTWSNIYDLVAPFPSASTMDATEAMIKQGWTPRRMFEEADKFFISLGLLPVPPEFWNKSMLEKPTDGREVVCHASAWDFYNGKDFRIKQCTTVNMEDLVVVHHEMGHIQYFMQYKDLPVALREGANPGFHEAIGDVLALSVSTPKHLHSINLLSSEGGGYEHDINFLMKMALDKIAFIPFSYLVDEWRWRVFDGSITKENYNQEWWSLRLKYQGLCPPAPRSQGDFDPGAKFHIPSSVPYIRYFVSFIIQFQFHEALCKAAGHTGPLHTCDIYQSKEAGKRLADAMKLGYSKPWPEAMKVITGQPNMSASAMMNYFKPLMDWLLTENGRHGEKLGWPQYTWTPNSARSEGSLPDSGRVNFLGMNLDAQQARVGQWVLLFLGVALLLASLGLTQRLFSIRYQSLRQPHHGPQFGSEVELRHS

[7] = target: Aldo-keto reductase family 1 member B1 (Rattus norvegicus, UniProt P07943); experiment: biochemical; assay type: tissue-based, Lens of camera-type eye
[8] = DRUGMATRIX: Sodium/nucleoside co-transporter radioligand binding (ligand: nitrobenzylthioinosine); assay type: cell membranes, Cavia porcellus, Dunkin-Hartley, Cerebral cortex, Membrane; settings: Not Active = under 50% inhibition at 10 µM
[9] = target: Mitogen-activated protein kinase 3 (Homo sapiens, UniProt P27361); experiment: DRUGMATRIX: Protein Serine/Threonine Kinase, ERK1 enzyme inhibition (substrate: Myelin Basic Protein); parameters: species or system Escherichia coli; settings: Not Active = under 50% inhibition at 10 µM
Chain of Mitogen-activated protein kinase 3 (P27361 whole entry): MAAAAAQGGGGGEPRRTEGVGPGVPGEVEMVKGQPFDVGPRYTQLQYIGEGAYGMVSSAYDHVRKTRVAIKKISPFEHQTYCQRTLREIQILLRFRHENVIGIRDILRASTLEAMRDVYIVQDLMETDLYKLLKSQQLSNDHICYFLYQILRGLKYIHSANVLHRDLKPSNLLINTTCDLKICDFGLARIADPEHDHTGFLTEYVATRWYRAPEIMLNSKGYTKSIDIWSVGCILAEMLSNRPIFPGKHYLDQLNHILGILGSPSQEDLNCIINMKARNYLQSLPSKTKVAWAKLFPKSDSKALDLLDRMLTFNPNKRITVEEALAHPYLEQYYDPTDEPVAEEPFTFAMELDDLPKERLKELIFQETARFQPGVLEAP

COP(=O)(OC)OC=C(Cl)Cl [DICHLORVOS]
Not Active: IC50 [1] | IC50 [2] | IC50 [3] | Ki [3] | IC50 [4] | IC50 [5] | IC50 [6] | IC50 [7] | IC50 [8] | Ki [8] | IC50 [9]

O=C(O)Cc1ccccc1Nc1c(Cl)cccc1Cl [DICLOFENAC]
Not Active: IC50 [1] | IC50 [2] | IC50 [3] | Ki [3] | IC50 [4] | IC50 [5] | IC50 [6] | IC50 [7] | IC50 [8] | Ki [8] | IC50 [9]

C[C@H]1O[C@@H](O[C@H]2[C@@H](O)C[C@H](O[C@H]3[C@@H](O)C[C@H](O[C@H]4CC[C@@]5(C)[C@H](CC[C@@H]6[C@@H]5CC[C@]5(C)[C@@H](C7=CC(=O)OC7)CC[C@]65O)C4)O[C@@H]3C)O[C@@H]2C)C[C@H](O)[C@@H]1O [DIGITOXIN]
Not Active: IC50 [1] | IC50 [2] | IC50 [3] | Ki [3] | IC50 [4] | IC50 [5] | IC50 [6] | IC50 [7] | IC50 [8] | Ki [8] | IC50 [9]

CCN1CC(CCN2CCOCC2)C(c2ccccc2)(c2ccccc2)C1=O (stereo not given) [DOXAPRAM]
Not Active: IC50 [1] | IC50 [2] | IC50 [3] | Ki [3] | IC50 [4] | IC50 [5] | IC50 [6] | IC50 [7] | IC50 [8] | Ki [8] | IC50 [9]

Cn1c(=O)c2c(ncn2CC2OCCO2)n(C)c1=O [DOXOFYLLINE]
Not Active: IC50 [1] | IC50 [2] | IC50 [3] | Ki [3] | IC50 [4] | IC50 [5] | IC50 [6] | IC50 [7] | IC50 [8] | Ki [8] | IC50 [9]

COc1cccc2c1C(=O)c1c(O)c3c(c(O)c1C2=O)C[C@@](O)(C(=O)CO)C[C@@H]3O[C@H]1C[C@H](N)[C@H](O)[C@H](C)O1 [DOXORUBICIN]
Not Active: IC50 [1] | IC50 [2] | IC50 [3] | Ki [3] | IC50 [4] | IC50 [5] | IC50 [6] | IC50 [7] | IC50 [8] | Ki [8] | IC50 [9]

COc1cccc2c1C(=O)c1c(O)c3c(c(O)c1C2=O)C[C@@](O)(C(=O)CO)C[C@@H]3O[C@H]1C[C@H](N)[C@@H](O)[C@H](C)O1 [EPIRUBICIN]
Not Active: IC50 [1] | IC50 [2] | IC50 [3] | Ki [3] | IC50 [4] | IC50 [5] | IC50 [6] | IC50 [7] | IC50 [8] | Ki [8] | IC50 [9]

C[C@]12CC[C@@H]3c4ccc(OC(=O)c5ccccc5)cc4CC[C@H]3[C@@H]1CC[C@@H]2O [ESTRADIOL BENZOATE]
Not Active: IC50 [1] | IC50 [2] | IC50 [3] | Ki [3] | IC50 [4] | IC50 [5] | IC50 [6] | IC50 [7] | IC50 [8] | Ki [8] | IC50 [9]

C[C@]12CC[C@@H]3c4ccc(O)cc4CC[C@H]3[C@@H]1CC[C@@H]2O [ESTRADIOL]
Not Active: IC50 [1] | IC50 [2] | IC50 [3] | Ki [3] | IC50 [4] | IC50 [5] | IC50 [6] | IC50 [7] | IC50 [8] | Ki [8] | IC50 [9]

CC[C@@H](CO)NCCN[C@@H](CC)CO [ETHAMBUTOL]
Not Active: IC50 [1] | IC50 [2] | IC50 [3] | Ki [3] | IC50 [4] | IC50 [5] | IC50 [6] | IC50 [7] | IC50 [8] | Ki [8] | IC50 [9]
